One assay concerns Hepatitis C virus. As to the kind of experiment: Antiviral activity against HCV subtype 1b Con1 reduction in replicon RNA level using RT-PCR by cell based replicon assay. In kind it is functional, organism-based, Hepacivirus hominis.
The nature of assay [1]: Inhibition of HCV NS5B after 150 mins by [33P]-CTP incorporation assay. More on the design: species or system Hepacivirus hominis.
Where [2] appears, read: Hepatitis C virus, Con1, read-out: EC50.

Structures are written as SMILES.

Among the data in ChEMBL document CHEMBL1821565, “I. Novel HCV NS5B polymerase inhibitors: discovery of indole 2-carboxylic acids with C3-heterocycles” (Bioorg Med Chem Lett, 2011) are EC50 and IC50 values, retold here.

As for `O=C(O)c1c(-c2ccc(F)cc2F)c2cc(Cl)ccc2n1Cc1cccc(Cl)c1`, the EC50 (usually the midpoint of the concentration-response curve) with Hepatitis C virus (setting [2]) is greater than 25 µM. Further, in assay [1], the midpoint of inhibition, the IC50, lay at 1.1 µM.

As for `O=C(O)c1c(-c2cccnc2F)c2cc(Cl)ccc2n1Cc1ccc(F)cc1F`, the EC50 in the assay on Hepatitis C virus (setting [2]) was greater than 25 µM. Further, in assay [1], the midpoint of inhibition, the IC50, lay at 0.3 µM.

Turning to `O=C(O)c1c(-n2ccccc2=O)c2cc(Cl)ccc2n1Cc1ccccc1F`, in the assay on Hepatitis C virus (setting [2]), the EC50 was 19 µM. In addition, the IC50 (commonly the concentration that inhibits the measured activity by half) in assay [1] stood at 0.15 µM.

With `O=C(O)c1c(-c2ccc[nH]c2=O)c2cc(Cl)ccc2n1Cc1ccc(F)cc1F`, the EC50 in the assay with Hepatitis C virus (setting [2]) worked out at 10 µM. The half-inhibitory concentration (IC50) in assay [1] was found to be 0.035 µM.

Take `O=C(O)c1c(-c2c[nH]c(=O)[nH]c2=O)c2cc(Cl)ccc2n1Cc1ccc(F)cc1F`: the EC50 with Hepatitis C virus (setting [2]) turned out to be 10 µM. The same molecule came in with an IC50 in assay [1] of 0.047 µM.

Turning to `Nc1cc(Cn2c(C(=O)O)c(-c3ccc[nH]c3=O)c3cc(Cl)ccc32)ccn1`, the EC50 in the assay with Hepatitis C virus (setting [2]) was 4.8 µM. The molecule also displayed an IC50 in assay [1] of 0.053 µM.

Consider `Nc1cc(Cn2c(C(=O)O)c(-c3c[nH]c(=O)[nH]c3=O)c3cc(Cl)ccc32)ccn1`, for which the EC50 with Hepatitis C virus (setting [2]) came out at 2 µM. The same molecule gave an IC50 in assay [1] of 0.031 µM.

Regarding `Nc1cc(Cn2c(C(=O)O)c(N3CCNS3(=O)=O)c3cc(Cl)ccc32)ccn1`, the EC50 entry with Hepatitis C virus is recorded as “Not Active”. For the same molecule, the IC50 in assay [1] was greater than 20 µM.

For `Nc1cc(Cn2c(C(=O)O)c(N3CCCNS3(=O)=O)c3cc(Cl)ccc32)ccn1`, the EC50 entry in the assay on Hepatitis C virus was “Not Active”. In addition, the IC50 in assay [1] is greater than 20 µM.

As for `O=C(O)c1c(-c2ccc[nH]c2=O)c2cc(Br)ccc2n1Cc1ccc(F)cc1F`, the EC50 in the assay with Hepatitis C virus (setting [2]) stood at 7.6 µM. In assay [1], this molecule yielded an IC50 of 0.043 µM.

For the molecule `COc1ccc2c(c1)c(-c1ccc[nH]c1=O)c(C(=O)O)n2Cc1ccc(F)cc1F`, the EC50 in the assay with Hepatitis C virus (setting [2]) was 11 µM. For the same molecule, the IC50 in assay [1] is 0.043 µM.

In the case of `CCOc1ccc2c(c1)c(-c1ccc[nH]c1=O)c(C(=O)O)n2Cc1ccc(F)cc1F`, the 50% effective concentration (EC50) in the assay with Hepatitis C virus (setting [2]) came to 20 µM. In assay [1], this molecule registered an IC50 of 0.12 µM.

In the case of `O=C(O)c1c(-c2ccc[nH]c2=O)c2cc(C3CC3)ccc2n1Cc1ccc(F)cc1F`, the EC50 in the assay with Hepatitis C virus (setting [2]) is greater than 50 µM. Moreover, the IC50 in assay [1] worked out at 0.56 µM.

Turning to `Cc1ccc2c(c1)c(-c1ccc[nH]c1=O)c(C(=O)O)n2Cc1ccc(F)cc1F`, in assay [1], the IC50 amounted to 0.046 µM.

`O=C(O)c1c(-c2ccc[nH]c2=O)c2cc(C(F)(F)F)ccc2n1Cc1ccc(F)cc1F`: the EC50 in the assay on Hepatitis C virus (setting [2]) turned out to be 4.8 µM. Also, the IC50 in assay [1] turned out to be 0.025 µM.

Regarding `NC(=O)Nc1c(C(=O)O)n(Cc2cc(F)ccc2F)c2ccc(C(F)(F)F)cc12`, the EC50 with Hepatitis C virus (setting [2]) is greater than 10 µM. The molecule also showed an IC50 in assay [1] of 0.35 µM.

Consider `O=C(O)c1c(-n2c(=O)[nH]c3nccnc3c2=O)c2cc(C(F)(F)F)ccc2n1Cc1cc(F)ccc1F`, for which the EC50 in the assay with Hepatitis C virus (setting [2]) was greater than 10 µM. Further, in assay [1], inhibition was half-maximal at 0.27 µM (IC50).

For `O=C(O)c1c(-n2c(=O)[nH]c3cscc3c2=O)c2cc(C(F)(F)F)ccc2n1Cc1ccc(F)cc1F`, the EC50 with Hepatitis C virus (setting [2]) is 12 µM. Moreover, the IC50 in assay [1] is 0.059 µM.

As to `Nc1cc(Cn2c(C(=O)O)c(-n3c(=O)[nH]c4cscc4c3=O)c3cc(C(F)(F)F)ccc32)ccn1`, in the assay with Hepatitis C virus (setting [2]), the EC50 is 1.4 µM. In assay [1], this molecule registered an IC50 of 0.032 µM.

In the case of `Nc1cc(Cn2c(C(=O)O)c(-c3ccc[nH]c3=O)c3cc(C(F)(F)F)ccc32)ccn1`, the EC50 in the assay with Hepatitis C virus (setting [2]) was determined as 0.3 µM. The molecule further returned an IC50 in assay [1] of 0.017 µM.

With `O=C(O)c1c(-c2ccccc2F)c2cc(Cl)ccc2n1Cc1ccccc1`, the EC50 in the assay with Hepatitis C virus (setting [2]) is greater than 100 µM.

Take `O=C(O)c1[nH]c2ccc(Cl)cc2c1-c1ccccc1F`: the EC50 with Hepatitis C virus (setting [2]) is greater than 25 µM. Besides, half-maximal inhibition in assay [1] (IC50) was put at 7.3 µM.

On to `Cn1c(C(=O)O)c(-c2ccccc2F)c2cc(Cl)ccc21`, for which the EC50 with Hepatitis C virus (setting [2]) was greater than 25 µM. Half-maximal inhibition in assay [1] (IC50) was put at 1.3 µM.

In the case of `CC(=O)n1c(C(=O)O)c(-c2ccccc2F)c2cc(Cl)ccc21`, in the assay on Hepatitis C virus (setting [2]), the EC50 was greater than 25 µM. Besides, in assay [1], half-maximal inhibition (IC50) was put at 8.1 µM.

On to `O=C(O)c1c(-c2ccccc2F)c2cc(Cl)ccc2n1C(=O)c1ccccc1`, for which the EC50 in the assay on Hepatitis C virus (setting [2]) is greater than 25 µM. The molecule further displayed an IC50 in assay [1] of 7.8 µM.

Regarding `O=C(O)c1c(-c2ccccc2F)c2cc(Cl)ccc2n1Cc1ccc2ccccc2c1`, in the assay on Hepatitis C virus (setting [2]), the EC50 is greater than 25 µM. The molecule also came in with an IC50 in assay [1] of 4.4 µM.

For the molecule `Cc1cccc(Cn2c(C(=O)O)c(-c3ccccc3F)c3cc(Cl)ccc32)c1`, the EC50 in the assay on Hepatitis C virus (setting [2]) was greater than 25 µM. It took 2.5 µM to reach half-maximal inhibition in assay [1] (IC50).

As to `O=C(O)c1c(-c2ccccc2F)c2cc(Cl)ccc2n1Cc1cccc(C(F)(F)F)c1`, the EC50 with Hepatitis C virus (setting [2]) was greater than 25 µM. The molecule further came in with an IC50 in assay [1] greater than 44 µM.

Regarding `O=C(O)c1c(-c2ccccc2F)c2cc(Cl)ccc2n1Cc1cccc(OC(F)(F)F)c1`, the EC50 with Hepatitis C virus (setting [2]) was greater than 25 µM. Further, it took 1.8 µM to reach half-maximal inhibition in assay [1] (IC50).

Regarding `O=C(O)c1c(-c2ccccc2F)c2cc(Cl)ccc2n1Cc1cc(F)ccc1F`, the EC50 in the assay on Hepatitis C virus (setting [2]) is greater than 25 µM. Besides, the 50% inhibitory concentration (IC50) in assay [1] came to 0.3 µM.

In the case of `Nc1ccccc1Cn1c(C(=O)O)c(-c2ccccc2F)c2cc(Cl)ccc21`, the EC50 in the assay with Hepatitis C virus (setting [2]) was greater than 25 µM. The molecule also gave an IC50 in assay [1] of 0.6 µM.

In the case of `Nc1cccc(Cn2c(C(=O)O)c(-c3ccccc3F)c3cc(Cl)ccc32)c1`, the EC50 in the assay with Hepatitis C virus (setting [2]) was greater than 25 µM. In assay [1], this molecule returned an IC50 of 0.2 µM.

`Cc1ccc(Cn2c(C(=O)O)c(-c3ccccc3F)c3cc(Cl)ccc32)cc1N`: in the assay on Hepatitis C virus (setting [2]), the EC50 is greater than 25 µM. This molecule also showed an IC50 in assay [1] of 1.3 µM.

As to `CC(=O)Nc1cccc(Cn2c(C(=O)O)c(-c3ccccc3F)c3cc(Cl)ccc32)c1`, the concentration giving a half-maximal response (EC50) in the assay with Hepatitis C virus (setting [2]) was greater than 25 µM. The molecule also returned an IC50 in assay [1] of 0.6 µM.

`O=C(O)c1c(-c2ccccc2F)c2cc(Cl)ccc2n1Cc1cccc(NCc2ccccc2)c1`: in the assay on Hepatitis C virus (setting [2]), the EC50 was greater than 25 µM. The molecule further returned an IC50 in assay [1] of 0.7 µM.

On to `O=C(O)c1c(-c2ccccc2F)c2cc(Cl)ccc2n1Cc1cccnc1`, for which the EC50 with Hepatitis C virus (setting [2]) was greater than 25 µM. In assay [1], the IC50 amounted to 1.3 µM.

Turning to `O=C(O)c1c(-c2ccccc2F)c2cc(Cl)ccc2n1Cc1ccncc1`, the EC50 with Hepatitis C virus (setting [2]) was greater than 25 µM. The molecule further yielded an IC50 in assay [1] of 1.2 µM.

`O=C(O)c1cc2cc(Cl)ccc2n1Cc1ccccc1F`: the EC50 with Hepatitis C virus (setting [2]) is greater than 25 µM. This molecule also came in with an IC50 in assay [1] of 17 µM.

Turning to `COc1ccccc1-c1c(C(=O)O)n(Cc2ccccc2F)c2ccc(Cl)cc12`, the EC50 in the assay with Hepatitis C virus (setting [2]) is greater than 25 µM. Moreover, in assay [1], 10 µM corresponded to half-maximal inhibition (IC50).

For `O=C(O)c1c(-c2ccccc2O)c2cc(Cl)ccc2n1Cc1cc(F)ccc1F`, the EC50 with Hepatitis C virus (setting [2]) was greater than 25 µM. The IC50 in assay [1] stood at 1.4 µM.

With `O=C(O)c1c(-c2ccccc2)c2cc(Cl)ccc2n1Cc1cccc(Cl)c1`, the EC50 in the assay on Hepatitis C virus (setting [2]) is greater than 25 µM. The molecule further yielded an IC50 in assay [1] of 4.2 µM.

As to `O=C(O)c1c(-c2cccc(Cl)c2)c2cc(Cl)ccc2n1Cc1cccc(Cl)c1`, the EC50 in the assay with Hepatitis C virus (setting [2]) was greater than 25 µM. The IC50 in assay [1] is 33 µM.

On to `N#Cc1cccc(-c2c(C(=O)O)n(Cc3cccc(Cl)c3)c3ccc(Cl)cc23)c1`, for which the EC50 in the assay on Hepatitis C virus (setting [2]) was greater than 25 µM. Besides, the IC50 in assay [1] was found to be 30 µM.

As for `O=C(O)c1c(-c2ccc3c(c2)OCO3)c2cc(Cl)ccc2n1Cc1cccc(Cl)c1`, in the assay with Hepatitis C virus (setting [2]), the EC50 was greater than 25 µM. The molecule further returned an IC50 in assay [1] of 29 µM.

Turning to `O=C(O)c1c(-c2ccc(F)cc2)c2cc(Cl)ccc2n1Cc1cccc(Cl)c1`, the EC50 with Hepatitis C virus (setting [2]) was greater than 25 µM. In addition, the IC50 in assay [1] was greater than 48 µM.

Take `O=C(O)c1c(-c2ccc(F)c(F)c2)c2cc(Cl)ccc2n1Cc1cccc(Cl)c1`: the EC50 in the assay with Hepatitis C virus (setting [2]) is greater than 25 µM. The IC50 in assay [1] was greater than 46 µM.
